# In patent US10188858B2, “Method and device for treating a tissue with a high frequency electromagnetic field” (University of Cincinnati, priority 2013, dated 2019):
# Assays:
# [1] = test system: MEK; assay: Total and phosphorylated MEK levels (sandwich ELISA) with inhibitors; type: cell-based, C57 mice
# Excerpt: (§1) Murine microvascular endothelial cells were isolated from the lungs of C57 mice (Jackson Laboratory, Maine, USA) as described previously. Cells were doubly sorted using PECAM-1- and ICAM-2-conjugated magnetic beads (Invitrogen Corporation, CA, USA) and cultured in medium M199 (HyClone, UT, USA) supplemented with 10% fetal bovine serum (FBS; Atlanta Biologicals, GA, USA), 1% antibiotic/antimycotic (AB/AM; Atlanta Biologicals, USA), 1% heparin (Sigma-Aldrich, MO, USA) and 1Ong/mL endothelial growth factor supplement (Sigma-Aldrich, MO, USA). Cells from passages 4-9 were used. All experiments were conducted in the culture medium (medium M199, 10% FBS, 1% antibiotic/antimycotic and 1% heparin) without additional growth factor supplementation.
# (§2) Capillary morphogenesis, and MAPK pathways activation were quantified following 12 hours of EF exposure, and the analyses of VEGF expression, cell proliferation and apoptosis were conducted up to 24 hours of EF exposure. The experimental groups included endothelial cells exposed to high frequency EF, low frequency EF and a group not exposed to EF.
# (§3) After EF exposure, cells were lysed using buffer containing 20 mM Tris-HCl, 150 mM NaCl, 1 mM Na2EDTA, 1 mM EGTA, 1% Triton, 2.5 mM sodium pyrophosphate, 1 mM beta-glycerophosphate, 1 mM Na3VO4, 1 μg/ml leupeptin and 1 mM phenylmethylsulfonyl fluoride (PMSF). The total protein concentration in each sample lysate was determined using CoomassiePlus Assay Kit (Thermo Fisher Scientific, IL, USA). 10 μg of total protein was used for all MAPK pathway ELISAs. The total and phosphorylated levels of ERK, MEK, p38 and JNK proteins were quantified using appropriate sandwich ELISA kits (Cell Signaling Technology, MA, USA). MEK-cRaf complex levels and free (unbound) MEK levels were quantified according to previously described protocols with modifications. The total MEK levels are presented in optical densities and phosphorylated MEK, MEK-cRaf and pMEK-cRaf levels are normalized to total MEK levels. For negative control, β-actin (Invitrogen, USA) was immunoprecipitated from the lysate and subjected to ELISAs. All ELISA assays were performed in duplicates or triplicates, with all experiments repeated at least N=6 times.
# To determine the role of VEGF signaling in EF-mediated angiogenic responses, experiments were repeated in the presence of 0.1 μg/mL soluble anti-mouse VEGF blocking antibody (R&D Systems, MN, USA), or 5 μM SU5416 (Sigma-Aldrich, MO, USA), a specific pharmacological VEGFR2inhibitor, or in the presence of 10 μM U0126 MEK inhibitor (Sigma-Aldrich, MO, USA). […] To examine the role of PI3K, Ca^2+ and eNOS signaling in EF-mediated MEK activation, cells were treated with 10 μM LY294002 (PI3K inhibitor), 10 μM BAPTA (Ca^2+ chelator), or 200 μM Nω-Nitro-L-arginine methyl ester hydrochloride (L-NAME, eNOS inhibitor),respectively, and the total and phosphorylated MEK levels were measured using ELISA. All inhibitors were added to the culture supernatant and pre-incubated for one hour to equilibrate respective target blocking prior to EF exposure. All analyses were done in duplicates/triplicates, and all inhibitor experiments were repeated at least N=3 times.
# [2] = test system: Murine microvascular endothelial cells; assay: In vitro capillary morphogenesis (nanofiber-based angiogenesis assay) with inhibitors; type: cell-based, C57 mice
# Experimental: Cells from passages 4-9 were used. […] Capillary morphogenesis was assessed using nanofiber-based angiogenesis assay previously developed in the lab, in which endothelial cells seeded on RAD16-II peptide nanofiber hydrogel (SynBioSci Corporation, CA, USA) undergo spontaneous capillary morphogenesis with clearly identifiable lumens in the absence of external angiogenic growth factors. Endothelial cells were seeded on the surface of 1% (w/v) hydrogel in cell culture inserts (Millipore, MA, USA) at a seeding density of 10^5 cells/cm^2. Cells seeded on 5% gelatin-coated inserts were used as a negative control. Cells were labeled with CellTracker dye (Invitrogen, USA) before seeding or with Phalloidin-TRITC (Sigma Aldrich, St Louis, Mo., USA). After EF exposure, samples (at least N=10 separate EF exposure experiments per group) were fixed with 2% formaldehyde, and images of the sample surface (n=5 per sample) were captured at 20× magnification using an inverted fluorescent microscope (Olympus IX81; Olympus, Pa., USA). The characteristic size of capillary-like networks was determined using correlation analysis and custom-written MATLAB code (The Math Works, MA, USA).
# [3] = test system: VEGF; assay: VEGF protein release by endothelial cells (ELISA) with inhibitors; type: cell-based, C57 mice
# Excerpt: Cells from passages 4-9 were used. […] VEGF and PIGF are two major angiogenic cytokines acting through VEGF receptors pathway. VEGF binds to both VEGFR1 and VEGFR2 receptors, although signals through VEGFR2. In contrast, PIGF which only binds to and signals through VEGFR1. To determine the effect of EF on the VEGF and PIGF protein release by endothelial cells, culture medium samples (at least N=6 separate experiments) were used to measure VEGF and PIGF protein levels using appropriate ELISA kits (R&D Systems, MN, USA).
# [4] = test system: MEK-cRaf complex; settings: high frequency EF in the presence of 10 μM U0126, compared to low frequency or no-EF groups
# Excerpt: as §1, §2
# as §3, with “All ELISA assays were performed in duplicates or triplicates, with all experiments repeated at least N=6 times.” left out
# [5] = 10 μM U0126, all experimental groups, compared to no inhibitor controls
# [6] = 10 μM U0126, high frequency EF vs low frequency EF and no-EF groups
smiles,measurement,setting,value
O=C(O)CN(CC(=O)O)c1ccccc1OCCOc1ccccc1N(CC(=O)O)CC(=O)O [BAPTA],MEK phosphorylation levels,"[1]; 10 μM BAPTA, high frequency EF and no-EF groups",significantly reduced
same,phosphorylated MEK levels in high frequency EF group compared to no-EF controls,[1]; in the presence of 10 μM BAPTA,lower
"COC(=O)[C@@H](N)CCCNC(=N)N[N+](=O)[O-].Cl [L-NAME, Nω-Nitro-L-arginine methyl ester hydrochloride]",EF-induced increase in pMEK,"[1]; 200 μM L-NAME, high frequency EF",abolished
same,base pMEK levels,"[1]; 200 μM L-NAME, no-EF controls",did not affect
Cc1cc(C)c(/C=C2\C(=O)Nc3ccccc32)[nH]1 [SU5416],capillary morphogenesis,"[2]; 5 μM SU5416, all experimental groups, including no-EF controls, 12 hours",completely abolished
same,VEGF release,"[3]; 5 μM SU5416, all experimental groups, including no-EF controls",significantly reduced
same,high frequency EF-induced MEK phosphorylation,"[1]; 5 μM SU5416, 7.5 GHz EF vs low frequency and no-EF controls",did not block
N#CC(=C(/N)Sc1ccccc1N)/C(C#N)=C(\N)Sc1ccccc1N [U0126],capillary morphogenesis (network size),[2]; [5],significantly reduced
same,effect of high frequency EF on capillary morphogenesis,[2]; [6],effectively reversed
same,VEGF release by endothelial cells,[3]; [5],significantly reduced
same,effect of high frequency EF on VEGF release,[3]; [6],effectively reversed
same,total concentration of MEK,[1]; presence of 10 μM U0126,did not affect
same,free MEK levels,[4],increased
same,phosphorylation of MEK-cRaf complex (pMEK-cRaf),[4],reduced
same,protein levels of MEK-cRaf complex,[4],reduced
